Measurements as given in article PMC7778589, “Photosensitizer-based multimodal PSMA-targeting ligands for intraoperative detection of prostate cancer” (Theranostics, 2021).

Experiments:
[1] = target: T1, PSMA-expressing LS174T cells (LS174T-PSMA) (Homo sapiens, UniProt Q04609); test: Binding and internalization assay with 111In-labeled ligands; type: cell-based; conditions: 2 h 37 °C
T1 construct: expressed in transfected cells; host or cells: LS174T colon carcinoma cells (human), stably transfected with pcDNA3.1-hPSMA
Procedure: Cell lines were purchased from the American Type Culture Collection. LS174T colon carcinoma cells were stably transfected with human PSMA using the plasmid pcDNA3.1-hPSMA and cultured in RPMI 1640 medium supplemented with 2 mM glutamine, 10% FCS, and 0.3 mg/ml G418 at 37 °C in a humidified atmosphere with 5% CO2 [5].
Binding and internalization characteristics of all ligands were compared using LS174T-PSMA and wildtype LS174T cells. Cells were cultured to confluency in 6-wells plates followed by incubation at 37 °C for 2 h in 1 ml binding buffer (RPMI/0.5% BSA) with 50,000 counts per minute (cpm) of ^111In-labeled ligand (0.1-0.25 pmol/well). Nonspecific binding was determined by coincubation with 2-(phosphonomethyl)pentane-1,5-dioic acid (2-PMPA, 21.57 µM). PSMA-specific binding was defined as nonspecific binding subtracted from total binding. To retrieve the membrane-bound fraction, cells were washed with PBS twice and incubated with acid buffer (0.1 M acetic acid, 154 mM NaCl, pH 2.6) for 10 minutes at 0 °C. After incubation, the membrane bound fraction (in acid buffer) was collected, cells were washed, lysed with 0.1 M NaOH and cell lysis (intercellular activity) was collected. Membrane-bound activity and intercellular activity fractions were measured in a gamma-counter (2480 WIZARD^2 Automatic Gamma Counter, PerkinElmer), [25]. Human serum was used to determine the in vitro serum stability of the multimodal ligands (0.8 µg/ml serum, 5 MBq/μg labeling). After incubation for 2 h at 37°C, serum proteins were precipitated by adding a 1:1 (v/v) volume of acetonitrile followed by 5 min of centrifugation at 3220×g. Stability was evaluated by RP-HPLC analysis after 2 h of incubation at 37 °C. […] Experimental details are described in the supplementary materials and methods.

[2] = system: LS174T-PSMA and LS174T xenografts; test: Biodistribution of 111In-labeled multimodal ligands; type: in vivo, BALB/c nude mice; conditions: 0.3 nmol, 2 h p.i.
Procedure: Animal experiments were performed in 8-10 weeks old male BALB/c nude mice (Janvier). Animals were housed in individually ventilated cages (Blue line IVC, 4-5 mice per cage) under nonsterile standard conditions with cage enrichment present and free access to chlorophyll-free animal chow (Sniff GmbH) and water. Mice were subcutaneously inoculated with 3.0 x 10^6 LS174T-PSMA cells in the left flank and 1.5 × 10^6 LS174T cells in the right flank, diluted in 200 μL of complete RPMI 1640 medium. Eleven days after tumor cell inoculation when xenografts were approximately 0.1 cm^3, tracers were injected intravenously via the tail vein. The researchers were not blinded for the experimental groups and tumor-bearing mice were block-randomized into groups based on tumor size. All experiments were approved by the institutional Animal Welfare Committee of the Radboud university medical center and were conducted in accordance to the guidelines of the Revised Dutch Act on Animal Experimentation.
Mice were injected intravenously with 10 MBq ^111In-labeled PSMA ligands (0.3 nmol, molar activity 33.3 MBq/nmol) in PBS/0.5% BSA. Two hours post injection, mice were euthanized by CO2/O2-asphyxation and images were acquired with the IVIS fluorescence imaging system (Xenogen VivoVision IVIS Lumina II, Caliper Life Sciences), using an acquisition time of 10 s. Subsequently, µSPECT/CT images were acquired (U-SPECT II, MILabs) with a 1.0 mm diameter pinhole mouse collimator tube [26]. Mice were scanned for 30 min followed by a CT scan (spatial resolution 160 μm, 65 kV, 615 μA) for anatomical reference. µSPECT/CT scans were reconstructed with MILabs reconstruction software, using an ordered-subset expectation maximization algorithm, energy windows 154 - 188 keV and 220-270 keV, 3 iterations, 16 subsets, voxel size of 0.4 mm. SPECT/CT scans were analyzed and maximum intensity projections (MIPs) were created using the Inveon Research Workplace software version 4.1 (Siemens Preclinical Solutions). NIRF images were analyzed using Living Image software version 4.2 (Caliper Life Sciences). Tissues of interest were dissected, weighed and measured for radioactivity in a gamma-counter as described above. In the fluorescence-guided surgery feasibility study, pre-operative imaging was performed to visualize tumor tissue. After white light resection, NIRF imaging was repeated to assess if any remaining tumor was present.

[3] = Lipophilicity, PBS/n-octanol; type: physicochemical; conditions: radiolabeled ligand
Procedure: Tubes were vortexed vigorously for 1 min and centrifuged for 5 min at 201×g for phase separation. The concentration of radioactivity in a defined volume of each layer was measured in a well-type gamma-counter.

T1 sequence (Q04609 whole entry): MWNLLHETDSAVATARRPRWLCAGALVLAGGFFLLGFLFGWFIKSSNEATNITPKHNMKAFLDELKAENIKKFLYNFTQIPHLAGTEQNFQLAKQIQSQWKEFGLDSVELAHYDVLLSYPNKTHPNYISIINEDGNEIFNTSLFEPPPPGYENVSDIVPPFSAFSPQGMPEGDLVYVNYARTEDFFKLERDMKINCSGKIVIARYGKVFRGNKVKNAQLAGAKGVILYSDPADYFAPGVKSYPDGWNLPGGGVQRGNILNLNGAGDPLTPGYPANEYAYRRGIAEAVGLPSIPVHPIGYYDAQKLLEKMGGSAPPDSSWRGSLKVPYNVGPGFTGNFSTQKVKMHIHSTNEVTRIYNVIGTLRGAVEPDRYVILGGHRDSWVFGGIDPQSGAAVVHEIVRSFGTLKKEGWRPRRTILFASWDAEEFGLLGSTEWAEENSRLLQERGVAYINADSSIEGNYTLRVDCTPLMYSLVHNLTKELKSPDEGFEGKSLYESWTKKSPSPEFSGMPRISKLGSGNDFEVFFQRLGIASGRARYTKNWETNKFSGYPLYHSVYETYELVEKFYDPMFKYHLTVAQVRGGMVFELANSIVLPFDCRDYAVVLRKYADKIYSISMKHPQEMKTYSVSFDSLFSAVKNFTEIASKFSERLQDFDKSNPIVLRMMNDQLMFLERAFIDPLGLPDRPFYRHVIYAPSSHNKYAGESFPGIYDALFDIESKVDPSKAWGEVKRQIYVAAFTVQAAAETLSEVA

Row | Internalized fraction [1] | Membrane bound fraction [1] | Adrenals [2] | Blood [2] | Bone [2] | Bone marrow [2] | Duodenum [2] | Heart [2] | Kidney [2] | Liver [2] | Lung [2] | Muscle [2] | Pancreas [2] | Prostate [2] | Salivary glands [2] | Spleen [2] | Stomach [2] | Tumor- LS174T [2] | Tumor/Blood ratio [2] | Tumor/Kidney ratio [2] | Compound | also measured
1 | 2.0 ± 0.39 | 0.8 ± 0.06 | 1.2 %ID/g | 0.7 %ID/g | 0.4 %ID/g | 0.2 %ID/g | 0.3 %ID/g | 0.3 %ID/g | 31.9 %ID/g | 0.8 %ID/g | 0.4 %ID/g | 0.2 %ID/g | 0.2 %ID/g | 0.9 %ID/g | 0.4 %ID/g | 1.1 %ID/g | 0.3 %ID/g | 0.4 %ID/g | 14.9 | 0.2 | C[Si](C)(CCC[N+](CCCS(=O)(=O)O)(CCCS(=O)(=O)O)CCCS(=O)(=O)O)O[Si-2]123(O[Si](C)(C)CCC[N+](CCCS(=O)(=O)O)(CCCS(=O)(=O)O)CCCS(=O)(=O)O)n4c5c6ccccc6c4N=C4c6cccc(OCCCOC(=O)NCCCCCC(=O)NCCCC[C@H](NC(=O)CCC(C(=O)O)N7CCN(CC(=O)O)CCN(CC(=O)O)CCN(CC(=O)O)CC7)C(=O)N[C@H](Cc7ccccc7)C(=O)NCCCCCC(=O)NCCCC[C@H](NC(=O)N[C@@H](CCC(=O)O)C(=O)O)C(=O)O)c6C(=[N+]41)N=c1c4ccccc4c(n12)=NC1=[N+]3C(=N5)c2ccccc21.[Na+].[Na+].[Na+].[Na+] (stereo partly drawn) [N046] | Tumor+ LS174T-PSMA [2]: 4.3 %ID/g; Tumor/Liver ratio [2]: 6.1; Tumor/Muscle ratio [2]: 39.3; Tumor/Negative tumor ratio [2]: 10.8; Tumor/Prostate ratio [2]: 10.7; Tumor/Salivary gland ratio [2]: 12.5; Tumor/Spleen ratio [2]: 4.4 ± 1; LogD [3]: -2.4 ± 0.03
2 | 3.6 ± 0.22 | 0.5 ± 0.20 | 2.5 %ID/g | 0.3 %ID/g | 1.2 %ID/g | 0.4 %ID/g | 0.6 %ID/g | 0.5 %ID/g | 112.8 %ID/g | 1 ± 0.2 %ID/g | 0.7 %ID/g | 0.3 %ID/g | 0.4 %ID/g | 1.4 %ID/g | 0.6 %ID/g | 3.1 ± 1 %ID/g | 0.5 %ID/g | 0.5 %ID/g | 56 | 0.2 | C[Si](C)(CCC[N+](CCCS(=O)(=O)O)(CCCS(=O)(=O)O)CCCS(=O)(=O)O)O[Si-2]123(O[Si](C)(C)CCC[N+](CCCS(=O)(=O)O)(CCCS(=O)(=O)O)CCCS(=O)(=O)O)n4c5c6ccccc6c4N=C4c6cccc(OCCCOC(=O)NCCCCCC(=O)NCCCC[C@H](NC(=O)CCC(C(=O)O)N7CCN(CC(=O)O)CCN(CC(=O)O)CCN(CC(=O)O)CC7)C(=O)N[C@@H](CCC(=O)O)C(=O)N[C@@H](CCC(=O)O)C(=O)N[C@@H](CCC(=O)O)C(=O)NCCCCCC(=O)NCCCC[C@H](NC(=O)N[C@@H](CCC(=O)O)C(=O)O)C(=O)O)c6C(=[N+]41)N=c1c4ccccc4c(n12)=NC1=[N+]3C(=N5)c2ccccc21.[Na+].[Na+].[Na+].[Na+] (stereo partly drawn) [N143] | Tumor/Liver ratio [2]: 15.2; Tumor/Muscle ratio [2]: 72.3; Tumor/Negative tumor ratio [2]: 36.7; Tumor/Prostate ratio [2]: 32.9; Tumor/Salivary gland ratio [2]: 28.8; Tumor/Spleen ratio [2]: 5.2; LogD [3]: -2.4 ± 0.10
3 | 2.5 ± 0.05 | 0.3 ± 0.03 | 1.3 %ID/g | 0.2 %ID/g | 0.5 %ID/g | 0.3 %ID/g | 0.3 %ID/g | 0.3 %ID/g | 70.3 %ID/g | 0.6 %ID/g | 0.4 %ID/g | 0.2 %ID/g | 0.2 %ID/g | 0.5 %ID/g | 0.4 %ID/g | 1.1 %ID/g | 0.3 %ID/g | 0.5 %ID/g | 71.9 | 0.2 | C[Si](C)(CCC[N+](CCCS(=O)(=O)O)(CCCS(=O)(=O)O)CCCS(=O)(=O)O)O[Si-2]123(O[Si](C)(C)CCC[N+](CCCS(=O)(=O)O)(CCCS(=O)(=O)O)CCCS(=O)(=O)O)n4c5c6ccccc6c4N=C4c6cccc(OCCCOC(=O)NCCCCCC(=O)NCCCC[C@H](NC(=O)CCC(C(=O)O)N7CCN(CC(=O)O)CCN(CC(=O)O)CCN(CC(=O)O)CC7)C(=O)N[C@@H](CCC(=O)O)C(=O)N[C@@H](CCC(=O)O)C(=O)NCCCCCC(=O)NCCCC[C@H](NC(=O)N[C@@H](CCC(=O)O)C(=O)O)C(=O)O)c6C(=[N+]41)N=c1c4ccccc4c(n12)=NC1=[N+]3C(=N5)c2ccccc21.[Na+].[Na+].[Na+].[Na+] (stereo partly drawn) [N144] | Tumor+ LS174T-PSMA [2]: 11.7 %ID/g; Tumor/Liver ratio [2]: 21.3; Tumor/Muscle ratio [2]: 110; Tumor/Negative tumor ratio [2]: 28.8; Tumor/Prostate ratio [2]: 32; Tumor/Salivary gland ratio [2]: 30.3; Tumor/Spleen ratio [2]: 12.3; LogD [3]: -2.4 ± 0.01

Row | Compound | Internalized fraction [1] | Membrane bound fraction [1] | Adrenals [2] | Blood [2] | Bone [2] | Bone marrow [2] | Duodenum [2] | Heart [2] | Kidney [2] | Liver [2] | Lung [2] | Muscle [2] | Pancreas [2] | Prostate [2] | Salivary glands [2] | Spleen [2] | Stomach [2] | Tumor- LS174T [2] | Tumor/Blood ratio [2] | Tumor/Kidney ratio [2] | also measured
4 | C[Si](C)(CCC[N+](CCCS(=O)(=O)O)(CCCS(=O)(=O)O)CCCS(=O)(=O)O)O[Si-2]123(O[Si](C)(C)CCC[N+](CCCS(=O)(=O)O)(CCCS(=O)(=O)O)CCCS(=O)(=O)O)n4c5c6ccccc6c4N=C4c6cccc(OCCCOC(=O)NCCCCCC(=O)NCCCC[C@H](NC(=O)[C@H](CCC(=O)O)NC(=O)CN7CCN(CC(=O)O)CCN(CC(=O)O)CCN(CC(=O)O)CC7)C(=O)N[C@H](Cc7ccccc7)C(=O)N[C@@H](CCC(=O)O)C(=O)N[C@@H](CCC(=O)O)C(=O)NCCCCCC(=O)NCCCC[C@H](NC(=O)N[C@@H](CCC(=O)O)C(=O)O)C(=O)O)c6C(=[N+]41)N=c1c4ccccc4c(n12)=NC1=[N+]3C(=N5)c2ccccc21.[Na+].[Na+].[Na+].[Na+] [N122] | 1.4 ± 0.20 | 0.6 ± 0.01 | 1.7 %ID/g | 0.6 %ID/g | 0.7 %ID/g | 0.4 %ID/g | 0.4 %ID/g | 0.5 %ID/g | 72.5 %ID/g | 1 ± 0.2 %ID/g | 1 ± 0.3 %ID/g | 0.2 %ID/g | 0.3 %ID/g | 0.4 %ID/g | 0.5 %ID/g | 1.6 %ID/g | 0.4 %ID/g | 0.5 %ID/g | 13.9 | 0.2 | Tumor+ LS174T-PSMA [2]: 7.6 %ID/g; Tumor/Liver ratio [2]: 8.1; Tumor/Muscle ratio [2]: 48.4; Tumor/Negative tumor ratio [2]: 17.8; Tumor/Prostate ratio [2]: 21.5; Tumor/Salivary gland ratio [2]: 18.6; Tumor/Spleen ratio [2]: 5.2; LogD [3]: -2.8 ± 0.06
